The text below walks through data of article PMC12494543, “Identification of ALKBH6 as a nucleotide demethylase with a distinct substrate preference” (The Journal of Biological Chemistry, 2025).

Series [1] deals with T1, ALKBH6 (Homo sapiens, UniProt Q3KRA9).
T1 construct: His-tag; made in house
The experiment in a line: FDH-coupled formaldehyde release demethylation assay. The format is biochemical. Conditions: for formaldehyde release / demethylation by ALKBH6: FDH-coupled assay, tested as substrate; for inhibition of ALKBH6-mediated demethylation: me-dNMPs as substrate. On the procedure:
(§1) NMPs including 1meAMP (Jena Bioscience, NU-1029-1,) 7meGMP (Jena Bioscience, NU-1135S), 6me-AMP (Sigma, M2780) were purchased. N-methylated deoxy-NMPs were prepared by methylating chemically synthesized 30-mer oligonucleotide containing either dA, dG, dC, or dT by MMS (5%, v/v) (0.59 M) MMS (Sigma, 129925) and purified as described before ([17]). The oligonucleotides were digested with nuclease P1 (NEB) at 37 °C for 4 h to produce deoxy-NMPs. After heat inactivating the nuclease, dNMPs were purified by HPLC and used for the demethylation reaction. N-methylated NMPs were purified similarly, using RNA as the starting material. For the demethylation reaction, ALKBH6 (1 μM) and me-dNMPs (1 mM) were mixed in the dioxygenase reaction buffer and incubated at 37 °C for 30 min. Formaldehyde release was detected by FDH-coupled DNA repair assay as described before ([32], [33]). Briefly, 1 mM NAD+ and 0.01 U FDH were added to the dioxygenase reaction buffer containing methylated nucleotide and ALKBH6. NADH generated was detected by the characteristic absorption peak (340 nm) using a 96-well multimode reader (Synergy, Biotek Instrument). Formaldehyde production was quantified from the standard curve and the initial velocities were determined using various substrate concentrations. The results were plotted and analyzed using GraphPad Prism.

Series [2] deals with T1, ALKBH6. The experiment in a line: Demethylation assay by HPLC analysis. Particulars: substrate 250 and 500 μM, 30 min. The format is biochemical. How it is done:
(§2) Following ALKBH6-mediated demethylation, NMPs and dNMPs were analyzed in an HPLC system (Shimadzu) equipped with a reversed-phase Shim-pack GIST C18 5 μm separation column (250 × 4.6 mm). For majority of the nucleotides including 1me-AMP, 1me-dAMP, 7me-dGMP, 6me-AMP, 7me-GMP, 3me-dCMP, dAMP, dCMP AMP, GMP, the column was equilibrated with mobile phase A (50 mM ammonium acetate) and mobile phase B (50 mM ammonium acetate, 50% of acetonitrile and 0.1% trifluoroacetic acid. For dGMP, different mobile phase A (50 mM ammonium acetate, 3% methanol, pH-5.0) and mobile phase B (methanol) were used. The peaks were identified based on the elution time of the standards (Fig. S9) purchased from Sigma and further analyzed using LabSolutions software (www.shimadzu.com) and analyzed by mass spectrometry.

In another series the target is T2, ALKBH6 E115 mutant (Homo sapiens, UniProt Q3KRA9, E115A).
T2 construct: His-tag; made in house
T2 sequence (Q3KRA9 whole entry E115A): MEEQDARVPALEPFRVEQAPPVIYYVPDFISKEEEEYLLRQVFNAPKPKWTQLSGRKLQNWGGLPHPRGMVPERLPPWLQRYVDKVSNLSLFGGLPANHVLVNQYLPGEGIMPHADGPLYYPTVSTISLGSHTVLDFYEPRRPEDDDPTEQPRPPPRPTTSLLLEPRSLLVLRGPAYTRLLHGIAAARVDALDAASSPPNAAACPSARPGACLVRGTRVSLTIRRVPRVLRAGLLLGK
The experiment in a line: FDH-coupled formaldehyde release demethylation assay. The format is biochemical. Particulars: substrate 500 μM. On the procedure:
as §1

The target of series [3] is T3, ALKBH6 Y120A (Homo sapiens, UniProt Q3KRA9, Y120A).
T3 construct: His-tag; made in house
T3 sequence (Q3KRA9 whole entry Y120A): as the sequence (Q3KRA9 whole entry E115A) above, with A115E, Y120A counted along it
The experiment in a line: Demethylation assay by HPLC analysis. The series is classed as biochemical. Particulars: substrate 500 μM. On the procedure:
as §2

The target in series [4] is T1, ALKBH6. The experiment in a line: Intrinsic tryptophan fluorescence quenching (Stern-Volmer). The format is binding. Conditions: WT ALKBH6, 2OG omitted. On the procedure: (§3) All tryptophan fluorescence spectroscopy experiments were performed using a multimode plate reader (PerkinElmer). The excitation and emission wavelengths were fixed at 280 nm and 356 nm, respectively. To measure ALKBH6–ligand interactions, recombinant ALKBH6 (500 nM), and increasing concentrations of ligand (0–80 μM) were equilibrated in binding buffer (50 mM Hepes, pH 7.6, 300 mM KCl) for 1 h. For Stern–Volmer quenching analysis, the F0/F = 1 + KSV(L) formula was used, where, KSV is the Stern–Volmer constant, L is the concentration of the quencher, F0 and F represent the steady-state fluorescence intensities in the absence and presence of quencher, respectively. All the data were calculated with best-fit parameter values and 95% confidence intervals in GraphPad Prism software.

The next series deals with T4, ALKBH6 E115A (Homo sapiens, UniProt Q3KRA9, E115A).
T4 construct: His-tag; made in house
T4 sequence (Q3KRA9 whole entry E115A): as the sequence (Q3KRA9 whole entry E115A) above
Described as above. The format is binding. How it is done:
as §3

Series [5] concerns the target T3, ALKBH6 Y120A. Described as above. The series is classed as binding. On the procedure: as §3
For series [6], the target named is T1, ALKBH6. The experiment in a line: Thermal shift analysis (DSF, SYPRO Orange). The format is binding. Particulars: from ΔTm vs ligand concentration; read-out: apparent dissociation constant. On the procedure: (§4) All the experiments were performed in Eco Real-Time PCR system as described before ([55]). Purified recombinant His-tag ALKBH6 or ALKBH6-Y120A (5 μM) was incubated with varying concentrations (0–50 μM) of 7methyl-GMP in binding buffer (50 mM Hepes pH7.6, and 75 mM KCl). SYPRO Orange was added to the reaction (20 μl) and melting derivatives (-dRFU/dT) of fluorescence emission were determined by measuring the fluorescence with temperature increment of 0.1 °C from 40 °C to 100 °C. The ΔTm was calculated by subtracting Tm of ALKBH6 from Tm of ALKBH6 with 7methyl-GMP. The changes of Tm (ΔTm) were plotted against increasing concentrations of 7methyl-GMP and dissociation constant was determined by using one site specific binding formula of GraphPad Prism software.

The target of series [7] is T3, ALKBH6 Y120A. The experiment in a line: Thermal shift analysis (DSF, SYPRO Orange). The series is classed as binding. On the procedure: as §4
The subject of series [8] is ALKBH6. The experiment in a line: ALKBH6 knockdown by shRNA, qPCR. The series is classed as cell-based, human. Conditions: MCF7 cells, 48 h after transfection, vs Sh-control. From the text:
The GFP-tagged ALKBH6 expression plasmids were constructed by cutting the PCR-amplified WT ALKBH6 with XhoI and EcoRI, and then cloned in-frame and upstream of the sequence encoding the GFP pEGFP-N1 (Clontech). ALKBH6 shRNA constructs were generated using reported sequences (shALKBH6#1 5′ AGGAGTATTTGCTTCGACA 3′, shALKBH6#2 5′ […] 3′) and cloned into the pSilencer 2.1-U6 puro shRNA vector. All the shRNA constructs were confirmed by sequencing (Fig. S6). For negative control, pSilencer 2.1-U6 puro vector was used.
MCF7 cells were maintained in Dulbecco's modified Eagle's medium (DMEM) with 10% fetal bovine serum at 37 °C in a humidified air containing 5% CO2. Stable ALKBH6 knockdown cell line was generated by inserting the target sequence for ALKBH6 or the scramble control into the pSilencer2.puro (pSil) vector (Ambion) to form short hairpin RNAs for RNAi. For plasmid transfection in MCF7 cells, cells were suspended in DMEM without fetal bovine serum or antibiotics at a concentration of 1 × 10^7 cells/ml. A volume of 0.1 ml was transferred to a sterile electroporation cuvette (Bio-Rad Gene Pulser cuvette) and kept at room temperature for 5 min in the presence of 15 μg plasmid. Electroporation was performed using the Gene Pulser Xcell System (Bio-Rad) with 220 V/cm, 950 μF capacitance, and infinite resistance. […]
For orientation: In qPCR the cycle at which signal appears reflects the starting amount.

For the next series, the system named is AlkB. Particulars: AlkB substrate; cited from earlier work.
The subject of the next series is MTH1. Details: method as in PMID 30304478. Conditions: MTH1 substrate; cited from earlier work.
For another series, the system named is ALKBH3. Details: method as in PMID 28269980. Particulars: cited from earlier work.
Where [9] appears, read: substrate of ALKBH6, Michaelis-Menten.

T1 sequence (Q3KRA9 whole entry): as the sequence (Q3KRA9 whole entry E115A) above, with A115E counted along it

As a reminder, the Km is the concentration of substrate that gives half-maximal velocity. In general, kcat refers to the maximal rate divided by the concentration of active sites. As for `C[n+]1cn([C@H]2C[C@H](O)[C@@H](COP(=O)(O)O)O2)c2nc(N)[nH]c(=O)c21` [7me-dGMP], the “formaldehyde release / demethylation by ALKBH6” value at ALKBH6 [1] is “Formaldehyde release was observed”. Besides, at ALKBH6 [1] (setting [9]), the Km stood at 1.03 µM and the kcat worked out at 0.18 s⁻¹. Moreover, the “demethylation by ALKBH6 (HPLC)” value on ALKBH6 [2] is recorded as “efficiently demethylate”.
For the compound `C[n+]1cn([C@@H]2O[C@H](COP(=O)(O)O)[C@@H](O)[C@H]2O)c2nc(N)[nH]c(=O)c21` [7me-GMP, N-7-methyl-GMP], on ALKBH6 [1], the “formaldehyde release / demethylation by ALKBH6” value was “Formaldehyde release was observed”. In addition, the “demethylation activity over time” value on ALKBH6 E115 mutant is “comparable to WT ALKBH6”. Further, the “demethylation by ALKBH6 (HPLC)” value on ALKBH6 [2] is listed as “converted”. In addition, the “demethylation (HPLC end product)” value at ALKBH6 Y120A [3] was “little demethylation”. Moreover, the “Stern-Volmer constant (Ksv)” value at ALKBH6 [4] is 0.036 ± 0.009 µM⁻¹; at ALKBH6 E115A, 0.035 ± 0.008 µM⁻¹; at ALKBH6 Y120A [5], “negative”. Besides, the Kd at ALKBH6 [6] was found to be 620 nM. In addition, the ΔTm shift result on ALKBH6 Y120A [7] is “no significant ΔTm shift”.
As to `Cn1c(=N)ccn([C@H]2C[C@H](O)[C@@H](COP(=O)(O)O)O2)c1=O` [3me-dCMP], the “formaldehyde release / demethylation by ALKBH6” value at ALKBH6 [1] is “Formaldehyde release was observed”. Also, the “demethylation by ALKBH6 (HPLC)” value on ALKBH6 [2] is on record as “efficiently demethylate”.
Turning to “Sh #2: shRNA to ALKBH6, 5′ GCACCACCTGTAATCTACTAT 3′ in pSilencer 2.1-U6 puro vector (shRNA in pSilencer vector; only target-sense given)”, the “reduction of ALKBH6 expression (knockdown)” value in the series on ALKBH6 [8] is “more than 90%”.
For the compound `Cn1cnc2c(ncn2[C@H]2C[C@H](O)[C@@H](COP(=O)(O)O)O2)c1=N` [1me-dAMP], the “formaldehyde release / demethylation by ALKBH6” value at ALKBH6 [1] is “Formaldehyde release was observed”. Also, the “demethylation by ALKBH6 (HPLC)” value on ALKBH6 [2] was “efficiently demethylate”. Besides, in the series with AlkB, the Michaelis-Menten constant (Km) is 2 µM and the kcat is 0.07 s⁻¹.
Take `CNc1ncnc2c1ncn2[C@@H]1O[C@H](COP(=O)(O)O)[C@@H](O)[C@H]1O` [6me-AMP]: on ALKBH6 [1], the “formaldehyde release / demethylation by ALKBH6” value is on record as “did not observe any demethylation”. At ALKBH6 [2], the “demethylation by ALKBH6 (HPLC)” value is on record as “did not observe any demethylation”.
`C[n+]1cnc2c(ncn2[C@@H]2O[C@H](COP(=O)(O)O)[C@@H](O)[C@H]2O)c1N` [1me-AMP, N-1-methyl-adenosine monophosphate]: the “demethylation by ALKBH6 (HPLC)” value at ALKBH6 [2] was “converted to AMP”. Further, the “Stern-Volmer constant (Ksv)” value at ALKBH6 [4] is 0.011 ± 0.002 µM⁻¹.
Regarding `Cn1cnc2c(ncn2[C@@H]2O[C@H](CO)[C@@H](O)[C@H]2O)c1=N` [1me-adenosine, reference compound], the “formaldehyde release / demethylation by ALKBH6” value at ALKBH6 [1] was “could not demethylate”.
For `Cn1c[n+]([C@@H]2O[C@H](COP(=O)([O-])OP(=O)(O)OP(=O)(O)O)[C@@H](O)[C@H]2O)c2nc(N)[nH]c(=O)c21` [7me-GTP], the “formaldehyde release / demethylation by ALKBH6” value at ALKBH6 [1] is “comparatively less”. Besides, the “Stern-Volmer constant (Ksv)” value on ALKBH6 [4] is 0.007 µM⁻¹.
Consider `O=C(O)CCC(O)C(=O)O` (stereo not shown) [2HG, 2-hydroxyglutarate, reference compound], for which, on ALKBH6 [1], the “inhibition of ALKBH6-mediated demethylation” value is “inhibited”.
In the case of `Cn1cnc2c(ncn2[C@@H]2O[C@H](COP(=O)(O)OP(=O)(O)OP(=O)(O)O)[C@@H](O)[C@H]2O)c1=N` [1me-ATP], the “formaldehyde release / demethylation by ALKBH6” value at ALKBH6 [1] is “comparatively less”.
In the case of `COc1nc(N)nc2c1ncn2[C@@H]1O[C@H](COP(=O)(O)OP(=O)(O)OP(=O)(O)O)[C@@H](O)[C@H]1O` [O^6-methyl-GTP], the kcat in the series with MTH1 is 0.3 s⁻¹.
Regarding `O=C(O)CCC(=O)O` [succinate, reference compound], on ALKBH6 [1], the “inhibition of ALKBH6-mediated demethylation” value was “inhibited”.
On to `Cn1c(N)nc2c(ncn2[C@@H]2O[C@H](COP(=O)(O)OP(=O)(O)OP(=O)(O)O)[C@@H](O)[C@H]2O)c1=O` [1me-GTP], for which, on ALKBH6 [4], the “Stern-Volmer constant (Ksv)” value worked out at 0.004 µM⁻¹.
As for `Cn1c(=N)cc[nH]c1=O` [3meC, N-3-methylcytosine], the kcat result in the series with ALKBH3 is given as “approximately 1.7 min^−1”.
As for `Cn1c[n+]([C@@H]2O[C@H](CO)[C@@H](O)[C@H]2O)c2nc(N)[nH]c(=O)c21` [7me-guanosine, reference compound], at ALKBH6 [1], the “formaldehyde release / demethylation by ALKBH6” value was “could not demethylate”.
As for `COc1nc(N)nc2c1ncn2[C@H]1C[C@H](O)[C@@H](COP(=O)(O)OP(=O)(O)OP(=O)(O)O)O1` [O6-methyl-dGTP], in the series on MTH1, the Km is 13.2 µM and the kcat was 8.3 s⁻¹.
As for “Sh #1: shRNA to ALKBH6, 5′ AGGAGTATTTGCTTCGACA 3′ in pSilencer 2.1-U6 puro vector (shRNA in pSilencer vector; only target-sense given)”, the “reduction of ALKBH6 expression (knockdown)” value with ALKBH6 [8] is 75%.
